Data reported in ChEMBL document CHEMBL1275577, “Study of the in vitro activities of rifaximin and comparator agents against 536 anaerobic intestinal bacteria from the perspective of potential utility in pathology involving bowel flora” (Antimicrob Agents Chemother, 2009).
Values after ≈ are worked out from the molar mass of the structure shown.

What was measured:
Eubacterium saburreum = test: Antimicrobial activity against Eubacterium saburreum by Wadsworth agar dilution method; assay type: functional; details: Lachnoanaerobaculum saburreum
Prevotella intermedia = test: Antimicrobial activity against Prevotella intermedia by Wadsworth agar dilution method; assay type: functional
Fusobacterium varium = test: Antimicrobial activity against Fusobacterium varium by Wadsworth agar dilution method; assay type: functional
[1] = system: Clostridium aminobutyricum; test: Antimicrobial activity against Clostridium aminobutyricum by Wadsworth agar dilution method; assay type: functional
Clostridium glycolicum = test: Antimicrobial activity against Clostridium glycolicum by Wadsworth agar dilution method; assay type: functional; details: Terrisporobacter glycolicus
[2] = system: Parabacteroides goldsteinii; test: Antimicrobial activity against Parabacteroides goldsteinii by Wadsworth agar dilution method; assay type: functional
Clostridium disporicum = test: Antimicrobial activity against Clostridium disporicum by Wadsworth agar dilution method; assay type: functional
Fusobacterium nucleatum = test: Antimicrobial activity against Fusobacterium nucleatum by Wadsworth agar dilution method; assay type: functional
Blautia producta = test: Antimicrobial activity against Ruminococcus productus by Wadsworth agar dilution method; assay type: functional
[3] = system: Pseudoramibacter alactolyticus; test: Antimicrobial activity against Eubacterium alactolyticum by Wadsworth agar dilution method; assay type: functional
[4] = system: Bacteroides thetaiotaomicron; test: Antimicrobial activity against Bacteroides thetaiotaomicron by Wadsworth agar dilution method; assay type: functional
Prevotella corporis = test: Antimicrobial activity against Prevotella corporis by Wadsworth agar dilution method; assay type: functional
Porphyromonas uenonis = test: Antimicrobial activity against Porphyromonas uenonis by Wadsworth agar dilution method; assay type: functional
Parabacteroides merdae = test: Antimicrobial activity against Parabacteroides merdae by Wadsworth agar dilution method; assay type: functional
Clostridium cadaveris = test: Antimicrobial activity against Clostridium cadaveris by Wadsworth agar dilution method; assay type: functional
Clostridium sp. = test: Antimicrobial activity against Clostridium sp. by Wadsworth agar dilution method; assay type: functional
Lactobacillus jensenii = test: Antimicrobial activity against Lactobacillus jensenii by Wadsworth agar dilution method; assay type: functional
[5] = system: Clostridium acetobutylicum; test: Antimicrobial activity against Clostridium acetobutylicum by Wadsworth agar dilution method; assay type: functional
[6] = system: Paraclostridium bifermentans; test: Antimicrobial activity against Clostridium bifermentans by Wadsworth agar dilution method; assay type: functional
[7] = Drug level in stool of patient with traveler's diarrhea at 800 mg, po administered daily for 3 days; assay type: ADME, organism-based; details: human, in vivo, 72 h

Structure (SMILES): CC(=O)Oc1ccccc1C(=O)Nc1ncc([N+](=O)[O-])s1 [NITAZOXANIDE]
- MIC50 (Eubacterium saburreum): 2 µg/mL (≈ 6.51 µM)
- MIC90 (Eubacterium saburreum): 32 µg/mL (≈ 104 µM)
- MIC50 (Prevotella intermedia): 4 µg/mL (≈ 13 µM)
- MIC90 (Prevotella intermedia): 8 µg/mL (≈ 26 µM)
- MIC50 (Fusobacterium varium): 1 µg/mL (≈ 3.25 µM)
- MIC90 (Fusobacterium varium): 8 µg/mL (≈ 26 µM)
- MIC50 [1]: 0.5 µg/mL (≈ 1.63 µM)
- MIC90 [1]: 4 µg/mL (≈ 13 µM)
- MIC50 (Clostridium glycolicum): 0.5 µg/mL (≈ 1.63 µM)
- MIC90 (Clostridium glycolicum): 4 µg/mL (≈ 13 µM)
- MIC50 [2]: 4 µg/mL (≈ 13 µM)
- MIC90 [2]: 4 µg/mL (≈ 13 µM)
- MIC50 (Clostridium disporicum): 0.5 µg/mL (≈ 1.63 µM)
- MIC90 (Clostridium disporicum): 4 µg/mL (≈ 13 µM)
- MIC (Fusobacterium nucleatum): 0.25 µg/mL (≈ 0.814 µM)
- MIC50 (Fusobacterium nucleatum): 0.25 µg/mL (≈ 0.814 µM)
- MIC90 (Fusobacterium nucleatum): 0.5 µg/mL (≈ 1.63 µM)
- MIC50 (Blautia producta): 0.5 µg/mL (≈ 1.63 µM)
- MIC90 (Blautia producta): 1 µg/mL (≈ 3.25 µM)
- MIC50 [3]: 2 µg/mL (≈ 6.51 µM)
- MIC90 [3]: 32 µg/mL (≈ 104 µM)
- MIC50 [4]: 2 µg/mL (≈ 6.51 µM)
- MIC90 [4]: 8 µg/mL (≈ 26 µM)
- MIC50 (Prevotella corporis): 4 µg/mL (≈ 13 µM)
- MIC90 (Prevotella corporis): 8 µg/mL (≈ 26 µM)
- MIC50 (Porphyromonas uenonis): 0.5 µg/mL (≈ 1.63 µM)
- MIC90 (Porphyromonas uenonis): 1 µg/mL (≈ 3.25 µM)
- MIC50 (Parabacteroides merdae): 4 µg/mL (≈ 13 µM)
- MIC90 (Parabacteroides merdae): 4 µg/mL (≈ 13 µM)
- MIC50 (Clostridium cadaveris): 0.5 µg/mL (≈ 1.63 µM)
- MIC90 (Clostridium cadaveris): 4 µg/mL (≈ 13 µM)
- MIC50 (Clostridium sp.): 0.5 µg/mL (≈ 1.63 µM)
- MIC90 (Clostridium sp.): 4 µg/mL (≈ 13 µM)
- MIC50 (Lactobacillus jensenii): 2 µg/mL (≈ 6.51 µM)
- MIC90 (Lactobacillus jensenii): 32 µg/mL (≈ 104 µM)
- MIC50 [5]: 0.5 µg/mL (≈ 1.63 µM)
- MIC90 [5]: 4 µg/mL (≈ 13 µM)
- MIC50 [6]: 0.5 µg/mL (≈ 1.63 µM)
- MIC90 [6]: 4 µg/mL (≈ 13 µM)

Structure (SMILES): CO[C@H]1/C=C/O[C@@]2(C)Oc3c(C)c(O)c4c(O)c(c5c(nc6cc(C)ccn65)c4c3C2=O)NC(=O)/C(C)=C\C=C\[C@H](C)[C@H](O)[C@@H](C)[C@@H](O)[C@@H](C)[C@H](OC(C)=O)[C@@H]1C [RIFAXIMIN]
- concentration [7]: 8000 µg/g
- MIC50 (Eubacterium saburreum): 0.5 µg/mL (≈ 0.636 µM)
- MIC90 (Eubacterium saburreum): > 1020 µg/mL
- MIC (Prevotella intermedia): 0.25 µg/mL (≈ 0.318 µM)
- MIC50 (Prevotella intermedia): 0.25 µg/mL (≈ 0.318 µM)
- MIC90 (Prevotella intermedia): 0.5 µg/mL (≈ 0.636 µM)
- MIC50 (Fusobacterium varium): 16 µg/mL (≈ 20.4 µM)
- MIC90 (Fusobacterium varium): > 1020 µg/mL
- MIC [1]: 0.25 µg/mL (≈ 0.318 µM)
- MIC50 [1]: 0.25 µg/mL (≈ 0.318 µM)
- MIC90 [1]: > 1020 µg/mL
- MIC (Clostridium glycolicum): 0.25 µg/mL (≈ 0.318 µM)
- MIC50 (Clostridium glycolicum): 0.25 µg/mL (≈ 0.318 µM)
- MIC90 (Clostridium glycolicum): > 1020 µg/mL
- MIC [2]: 0.25 µg/mL (≈ 0.318 µM)
- MIC50 [2]: 0.25 µg/mL (≈ 0.318 µM)
- MIC90 [2]: 1 µg/mL (≈ 1.27 µM)
- MIC (Clostridium disporicum): 0.25 µg/mL (≈ 0.318 µM)
- MIC50 (Clostridium disporicum): 0.25 µg/mL (≈ 0.318 µM)
- MIC90 (Clostridium disporicum): > 1020 µg/mL
- MIC50 (Fusobacterium nucleatum): 2 µg/mL (≈ 2.54 µM)
- MIC90 (Fusobacterium nucleatum): 8 µg/mL (≈ 10.2 µM)
- MIC (Blautia producta): 0.25 µg/mL (≈ 0.318 µM)
- MIC50 (Blautia producta): 0.25 µg/mL (≈ 0.318 µM)
- MIC90 (Blautia producta): 4 µg/mL (≈ 5.09 µM)
- MIC50 [3]: 0.5 µg/mL (≈ 0.636 µM)
- MIC90 [3]: > 1020 µg/mL
- MIC50 [4]: 1 µg/mL (≈ 1.27 µM)
- MIC90 [4]: > 1020 µg/mL
- MIC (Prevotella corporis): 0.25 µg/mL (≈ 0.318 µM)
- MIC50 (Prevotella corporis): 0.25 µg/mL (≈ 0.318 µM)
- MIC90 (Prevotella corporis): 0.5 µg/mL (≈ 0.636 µM)
- MIC (Porphyromonas uenonis): 0.25 µg/mL (≈ 0.318 µM)
- MIC50 (Porphyromonas uenonis): 0.25 µg/mL (≈ 0.318 µM)
- MIC90 (Porphyromonas uenonis): 0.5 µg/mL (≈ 0.636 µM)
- MIC (Parabacteroides merdae): 0.25 µg/mL (≈ 0.318 µM)
- MIC50 (Parabacteroides merdae): 0.25 µg/mL (≈ 0.318 µM)
- MIC90 (Parabacteroides merdae): 1 µg/mL (≈ 1.27 µM)
- MIC (Clostridium cadaveris): 0.25 µg/mL (≈ 0.318 µM)
- MIC50 (Clostridium cadaveris): 0.25 µg/mL (≈ 0.318 µM)
- MIC90 (Clostridium cadaveris): > 1020 µg/mL
- MIC (Clostridium sp.): 0.25 µg/mL (≈ 0.318 µM)
- MIC50 (Clostridium sp.): 0.25 µg/mL (≈ 0.318 µM)
- MIC90 (Clostridium sp.): > 1020 µg/mL
- MIC50 (Lactobacillus jensenii): 0.5 µg/mL (≈ 0.636 µM)
- MIC90 (Lactobacillus jensenii): > 1020 µg/mL
- MIC [5]: 0.25 µg/mL (≈ 0.318 µM)
- MIC50 [5]: 0.25 µg/mL (≈ 0.318 µM)
- MIC90 [5]: > 1020 µg/mL
- MIC [6]: 0.25 µg/mL (≈ 0.318 µM)
- MIC50 [6]: 0.25 µg/mL (≈ 0.318 µM)
- MIC90 [6]: > 1020 µg/mL

Structure (SMILES): CN[C@H](CC(C)C)C(=O)N[C@H]1C(=O)N[C@@H](CC(N)=O)C(=O)N[C@H]2C(=O)N[C@H]3C(=O)N[C@H](C(=O)N[C@H](C(=O)O)c4cc(O)cc(O)c4-c4cc3ccc4O)[C@H](O)c3ccc(c(Cl)c3)Oc3cc2cc(c3O[C@@H]2O[C@H](CO)[C@@H](O)[C@H](O)[C@H]2O[C@H]2C[C@](C)(N)[C@H](O)[C@H](C)O2)Oc2ccc(cc2Cl)[C@H]1O [VANCOMYCIN]
- MIC50 (Eubacterium saburreum): 1 µg/mL (≈ 0.69 µM)
- MIC90 (Eubacterium saburreum): 64 µg/mL (≈ 44.2 µM)
- MIC50 (Prevotella intermedia): 128 µg/mL (≈ 88.3 µM)
- MIC90 (Prevotella intermedia): 256 µg/mL (≈ 177 µM)
- MIC50 (Fusobacterium varium): 256 µg/mL (≈ 177 µM)
- MIC90 (Fusobacterium varium): > 1020 µg/mL
- MIC50 [1]: 1 µg/mL (≈ 0.69 µM)
- MIC90 [1]: 4 µg/mL (≈ 2.76 µM)
- MIC50 (Clostridium glycolicum): 1 µg/mL (≈ 0.69 µM)
- MIC90 (Clostridium glycolicum): 4 µg/mL (≈ 2.76 µM)
- MIC50 [2]: 128 µg/mL (≈ 88.3 µM)
- MIC90 [2]: 128 µg/mL (≈ 88.3 µM)
- MIC50 (Clostridium disporicum): 1 µg/mL (≈ 0.69 µM)
- MIC90 (Clostridium disporicum): 4 µg/mL (≈ 2.76 µM)
- MIC50 (Fusobacterium nucleatum): 256 µg/mL (≈ 177 µM)
- MIC90 (Fusobacterium nucleatum): 512 µg/mL (≈ 353 µM)
- MIC50 (Blautia producta): 0.5 µg/mL (≈ 0.345 µM)
- MIC90 (Blautia producta): 1 µg/mL (≈ 0.69 µM)
- MIC50 [3]: 1 µg/mL (≈ 0.69 µM)
- MIC90 [3]: 64 µg/mL (≈ 44.2 µM)
- MIC50 [4]: 128 µg/mL (≈ 88.3 µM)
- MIC90 [4]: 256 µg/mL (≈ 177 µM)
- MIC50 (Prevotella corporis): 128 µg/mL (≈ 88.3 µM)
- MIC90 (Prevotella corporis): 256 µg/mL (≈ 177 µM)
- MIC50 (Porphyromonas uenonis): 4 µg/mL (≈ 2.76 µM)
- MIC90 (Porphyromonas uenonis): 8 µg/mL (≈ 5.52 µM)
- MIC50 (Parabacteroides merdae): 128 µg/mL (≈ 88.3 µM)
- MIC90 (Parabacteroides merdae): 128 µg/mL (≈ 88.3 µM)
- MIC50 (Clostridium cadaveris): 1 µg/mL (≈ 0.69 µM)
- MIC90 (Clostridium cadaveris): 4 µg/mL (≈ 2.76 µM)
- MIC50 (Clostridium sp.): 1 µg/mL (≈ 0.69 µM)
- MIC90 (Clostridium sp.): 4 µg/mL (≈ 2.76 µM)
- MIC50 (Lactobacillus jensenii): 1 µg/mL (≈ 0.69 µM)
- MIC90 (Lactobacillus jensenii): 64 µg/mL (≈ 44.2 µM)
- MIC50 [5]: 1 µg/mL (≈ 0.69 µM)
- MIC90 [5]: 4 µg/mL (≈ 2.76 µM)
- MIC50 [6]: 1 µg/mL (≈ 0.69 µM)
- MIC90 [6]: 4 µg/mL (≈ 2.76 µM)
